Source: article PMC6230393, “Enhancing TFEB-Mediated Cellular Degradation Pathways by the mTORC1 Inhibitor Quercetin” (Oxidative Medicine and Cellular Longevity, 2018)

Molecular target: mTOR (Homo sapiens, UniProt P42345)
Assay: LanthaScreen TR-FRET in vitro kinase assay, purified mTOR (PV4753), GFP-4E-BP1 substrate, […] ATP, […] MnCl2
Type: biochemical

O=c1c(O)c(-c2ccc(O)c(O)c2)oc2cc(O)cc(O)c12 [quercetin, 3,3′,4′,5,7-pentahydroxyflavone]
IC50: 7.8 µM
